Legend:
[1] = target: T1, leukotriene A4 hydrolase (LTA4H) (Homo sapiens, UniProt P09960); assay: LTA4H activity assay (fluorogenic substrate Arg-AMC); format: biochemical; details: for LTA4H LE: ligand efficiency calculated from IC50; for IC50: mean±standard deviation of three independent experiments
T1 construct: made in house; host or cells: E. coli BL21 (DE3)
T1 sequence (P09960 1-611): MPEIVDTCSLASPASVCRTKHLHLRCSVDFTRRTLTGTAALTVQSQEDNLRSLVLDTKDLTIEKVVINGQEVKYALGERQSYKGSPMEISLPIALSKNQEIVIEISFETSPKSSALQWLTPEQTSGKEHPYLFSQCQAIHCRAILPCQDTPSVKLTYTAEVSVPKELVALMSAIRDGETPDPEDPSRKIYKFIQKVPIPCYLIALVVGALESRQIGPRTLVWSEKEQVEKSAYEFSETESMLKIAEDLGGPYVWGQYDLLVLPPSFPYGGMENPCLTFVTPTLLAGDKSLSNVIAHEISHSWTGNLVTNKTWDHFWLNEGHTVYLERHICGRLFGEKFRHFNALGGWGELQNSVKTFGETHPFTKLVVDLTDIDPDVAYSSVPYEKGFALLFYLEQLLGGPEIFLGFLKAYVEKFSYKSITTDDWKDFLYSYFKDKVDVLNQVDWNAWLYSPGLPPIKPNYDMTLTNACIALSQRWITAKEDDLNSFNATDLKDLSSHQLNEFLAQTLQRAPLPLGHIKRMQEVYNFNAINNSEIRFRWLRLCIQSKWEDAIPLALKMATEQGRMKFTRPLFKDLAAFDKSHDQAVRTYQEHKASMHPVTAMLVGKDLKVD
Description: (§1) For hit validation, we employed secondary assays with orthogonal readouts to confirm fragment activities. Biochemical activity assays were chosen for the enzymes sEH, LTA4H, and 5‐LOX. […] RXRα and FXR modulation was assessed in cell‐based hybrid reporter gene assays. All ten compounds were tested at a single concentration of 500 μM in the sEH and LTA4H activity assays and with a concentration of 100 μM on 5‐LOX, RXRα, and FXR. Fragments showing an inhibition greater than 50 % (sEH‐H and LTA4H) or greater than 70 % (5‐LOX) as well as the hits determined in the DSF experiments were further characterized in full concentration‐response curves between 0.1 and 1000 μM. […] As alternative cell‐free assay we employed isothermal titration calorimetry (ITC) to determine binding affinity of the fragments towards the LBDs of both nuclear receptors. ITC was performed with a protein concentration of 50 μM and compound concentrations of 250 μM.
The 10 fragments showing dual activity in the DSF experiments were validated by functional assay screening with a fixed concentration of 500 µM in case of sEH-H and LTA4H, 100 µM in case of 5-LOX and 30 µM, 10 µM and 5 µM in case of FXR and […]
% (5-LOX) as well as the hits determined in the DSF experiments were further measured with concentrations between 1000 µM and 0.1 µM (sEH-H and LTA4H) and between 300 µM and 1 µM (5-LOX). The sEH and LTA4H activity assays were performed as triplicate and repeated 3 times. The 5-LOX activity assay was performed with one point per concentration and repeated 3 times Raw data was first analyzed in Microsoft Office Excel (2013), before IC50 curves were plotted and further analyzed using GraphPad Prism 7 and GraphPad Prism 8 for the shown graphs .
The eight approved drugs were measured in the orthogonal assay systems analogous to the fragments. The approved drugs were […]
For the sEH-H and LTA4H, they were measured as triplicate in concentrations between 1000 µM and 1 µM and each measurement was repeated three times. […]
Raw data was processed according to the fragments. […]
The LTA4H activity assay was performed adapted from Hiesinger et al.3.As in the sEH-H measurement 1 µl of compound dilution in DMSO or pure DMSO (for the positive and negative control) was placed in a black 96-well plate (Thermo Scientific™ Nunc™ F96 MicroWell™ Black Polystyrene Plate) and then 89 µl of protein-mix or buffer mix (without protein as negative control) were added and incubated for 30 min at room temperature.

FXR = target: T2, FXR (Homo sapiens, UniProt Q96RI1); assay: ITC measurement FXR LBD; format: binding; parameters: key: n.b.: no binding; w.b.: weak binding; details: 50 μM protein, 250 μM compound, 25 °C
T2 construct: His6-tag and TEV site (N, cleaved yes); made in house; host or cells: E. coli BL21 (DE3)
T2 sequence (Q96RI1 244-472 isoform Q96RI1-2): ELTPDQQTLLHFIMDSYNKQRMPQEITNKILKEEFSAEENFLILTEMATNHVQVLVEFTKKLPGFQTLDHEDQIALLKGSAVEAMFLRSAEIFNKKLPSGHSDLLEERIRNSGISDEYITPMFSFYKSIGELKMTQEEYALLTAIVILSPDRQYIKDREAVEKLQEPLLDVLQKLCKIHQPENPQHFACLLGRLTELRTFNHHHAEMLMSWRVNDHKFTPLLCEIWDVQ
Description: as §1, with “250 μM. […]” for “250 μM.”
Final concentration per well was 3 nM sEH-Fl, 0.001 % Triton X-100, 25 mM Bis-tris, 0.1 mg/ml BSA, pH = 7.0, 1.6% DMSO […]

[2] = system: sEH, LTA4H, 5‐LOX, FXR, RXR; assay: Orthogonal (secondary) assays, summary statements over the targets
Description: as §1, with “250 μM. […]” for “250 μM.”
% (5-LOX) as well as the hits determined in the DSF experiments were further measured with concentrations between 1000 µM and 0.1 µM (sEH-H and LTA4H) and between 300 µM and 1 µM (5-LOX). […] The 5-LOX activity assay was performed with one point per concentration and repeated 3 times Raw data was first analyzed in Microsoft Office Excel (2013), before IC50 curves were plotted and further analyzed using GraphPad Prism 7 and GraphPad Prism 8 for the shown graphs .
The eight approved drugs were measured in the orthogonal assay systems analogous to the fragments. […]
For the sEH-H and LTA4H, they were measured as triplicate in concentrations between 1000 µM and 1 µM and each measurement was repeated three times. For the 5-LOX they were measured as single point measurement in three different experiments with concentrations between 300 µM and 1 µM. […]
The sEH-H activity assay was performed adapted from Hahn et al.5 and Lukin et al.6. […] The Plate was measured every minute for 45 min. […]

SMILES	LTA4H LE [1] [kcal/mol]	IC50 [1] [µM]	FXR K d (FXR)	confirmation of dual DSF hits in the orthogonal experiments [2]
CCCCOc1cc(C(=O)OC)ccc1N [Compound 3]	0.39	24.6 ± 3.2	–	–
Clc1ccc2c(c1)Nc1ccccc1CC2 [Compound 8]	–	–	w.b.	–
Oc1ccc(-c2ccc(F)cc2F)cc1 [Compound 9]	0.40	36.2 ± 7.6	–	confirmed active
Fc1ccc(-c2c[nH]c3ccccc23)cc1 [Compound 10]	0.31	255 ± 24.9	n.b.	confirmed active
Oc1ccc(Cc2ccccc2)cc1 [Compound 4]	–	3 ± 0.5	–	–
Cc1cc(=O)n(-c2ccc(C)c(C)c2)[nH]1 [Compound 2]	–	–	–	confirmed active
Oc1ccc2cc[nH]c2c1 [Compound 5]	–	> 300	n.b.	–
c1ccc(N2CCNCC2)nc1 [Compound 1]	–	–	n.b.	–
CCN(Cc1ccccc1)c1ccccc1 [Compound 7]	–	> 300	–	–

— publication PMC8049054, “Systematic Assessment of Fragment Identification for Multitarget Drug Design” (Chemmedchem, 2021)
